Experimental data reported in ChEMBL document CHEMBL1141453, “Dissection of the recognition properties of p38 MAP kinase. Determination of the binding mode of a new pyridinyl-heterocycle inhibitor family” (J Med Chem, 2007).

Test: Inhibition of p38 kinase

- IC50: 161 nM
SMILES: Fc1ccc(-c2nc3[nH]ncc3c(-c3ccc(F)cc3)c2-c2ccncc2)cc1
